# According to BindingDB's records for patent US20240174696 (Genentech, 2024):
# Target: T1, Serine/threonine-protein kinase LATS2 (Homo sapiens, UniProt Q9NRM7)
# T1 sequence (Q9NRM7 whole entry): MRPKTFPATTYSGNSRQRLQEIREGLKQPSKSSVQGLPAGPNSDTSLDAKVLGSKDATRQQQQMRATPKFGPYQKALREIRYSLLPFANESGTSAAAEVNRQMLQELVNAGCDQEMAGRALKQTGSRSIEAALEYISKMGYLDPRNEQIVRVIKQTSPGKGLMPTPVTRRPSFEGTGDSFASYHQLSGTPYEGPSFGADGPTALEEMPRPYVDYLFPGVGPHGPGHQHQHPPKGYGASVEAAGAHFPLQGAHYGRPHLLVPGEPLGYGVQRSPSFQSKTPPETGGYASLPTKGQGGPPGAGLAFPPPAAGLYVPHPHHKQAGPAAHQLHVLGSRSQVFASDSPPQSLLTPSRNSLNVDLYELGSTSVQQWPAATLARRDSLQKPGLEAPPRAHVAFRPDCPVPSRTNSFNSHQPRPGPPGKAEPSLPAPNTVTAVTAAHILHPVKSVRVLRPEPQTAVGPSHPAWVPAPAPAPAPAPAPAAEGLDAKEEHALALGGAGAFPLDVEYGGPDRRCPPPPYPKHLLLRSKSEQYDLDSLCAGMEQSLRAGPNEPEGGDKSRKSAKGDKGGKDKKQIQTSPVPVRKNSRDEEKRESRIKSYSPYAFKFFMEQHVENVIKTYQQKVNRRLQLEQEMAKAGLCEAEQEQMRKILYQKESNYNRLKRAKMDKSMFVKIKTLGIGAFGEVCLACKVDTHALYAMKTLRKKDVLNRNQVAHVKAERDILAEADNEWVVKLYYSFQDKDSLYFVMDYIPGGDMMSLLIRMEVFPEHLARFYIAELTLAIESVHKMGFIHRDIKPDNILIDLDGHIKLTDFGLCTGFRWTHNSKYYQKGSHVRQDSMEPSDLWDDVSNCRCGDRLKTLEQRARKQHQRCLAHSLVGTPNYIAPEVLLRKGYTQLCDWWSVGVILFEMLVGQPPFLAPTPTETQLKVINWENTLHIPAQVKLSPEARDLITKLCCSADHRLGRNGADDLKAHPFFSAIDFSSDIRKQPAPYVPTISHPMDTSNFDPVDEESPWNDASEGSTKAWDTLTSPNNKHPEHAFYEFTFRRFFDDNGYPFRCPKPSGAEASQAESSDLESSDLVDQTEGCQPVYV
# Assay: Standard LATS2 HTRF Assay
# Protocol: Human LATS2 catalytic domain which contains the amino acids G553-V1088 (accession NP_055387) was purified in-house. The LATS2 catalytic domain was co-purified with Mob1b (accession NP_775739). The LATS2 biochemical HTRF assay was performed using the HTRF KinEASE-STK S1 Kit (Cisbio, Cat #62ST1PEC), following the protocol from the manufacturer. Compounds were dispensed by the Echo Liquid Handler (Labcyte) into a white 384-well plate (PerkinElmer, Cat #6008289). 3 uL of 2×LATS2 enzyme solution was added to the compounds, following by a 10 minute incubation at room temperature. Then, 2×ATP and STK S1 peptide solution was added to initiate the one hour enzyme reaction at room temperature. The final condition of the reaction was 0.2 nM LATS2, 50 μM ATP, 0.5 μM STK S1 peptide in 50 mM HEPES pH7.2, 10 mM MgCl2, 0.1% BGG, 0.005% Brij-35, 1 mM DTT. The reaction was quenched by adding 6 uL of the detection mixture which contained Streptavidin XL665 and STK Antibody-Cryptate (Cisbio), incubate for 1 hour at room temperature. The HTRF (665 nm/620 nm) signal was read on the Envision plater reader (PerkinElmer). The IC50 values were determined by fitting the % inhibition with a nonlinear four-parameter logistical equation. The Ki values were calculated using the Cheng-Prusoff equation for a competitive inhibitor, IC50═Ki (1+S/Km)+M [E] with ATP Km for LATS2=105 μM.
smiles,measurement,value
"COc1cncc2nc(-c3ccncc3)nc(N3CCC4(CCN(C)C4)CC3)c12 [US20240174696, Compound 252]",Ki,0.022 nM
